Results on 3 molecules are retold here after ChEMBL document CHEMBL1201862, “PubChem BioAssay data set” (2004).

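Step 1: Grow cells in 96-well plates. Step 2: Expose to compound for 48 hours at 5 concentrations. Step 3: Interpolate endpoints linearly; if unreached, use highest concentration. At the GI50, growth is halved.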 Active and inactive are the calls of the source. Rule as the data show it: active = GI50 up to about 1.1 µM and inactive = higher.

Some test systems named below: A549; BT-549; CAKI-1; COLO 205; EKVX; HCC 2998; HCT-15; HOP-62; HOP-92; IGROV-1; K562; LOX IMVI; NCI-H226; NCI-H522; RPMI-8226; SK-MEL-28; SK-MEL-5; T47D; TK-10; UO-31.
Assay in all cases: NCI-60 cell line screen, 48 h

With `C[N+]1(C)C/C(=C\C=C\c2ccccc2)C(=O)/C(=C/C=C/c2ccccc2)C1`, the GI50 in the test on A549 was 39.8 µM (inactive); in the test with BT-549 it was 1.92 µM (inactive); in the test on CAKI-1, 65 µM (inactive); in the test on COLO 205, 0.773 µM (active); in the test with EKVX, 45.1 µM (inactive); in the test with HCC 2998, 8.55 µM (inactive). Besides, the GI50 was 40.2 µM in the test with HCT-15; 21.3 µM (inactive) in the test on HOP-62; 17.9 µM (inactive) with HOP-92; 2.99 µM (inactive) in the test on IGROV-1; 4.18 µM (inactive) with K562; 12.2 µM (inactive) in the test on LOX IMVI. The GI50 in the test with NCI-H226 was 22.3 µM (inactive); in the test with NCI-H522, 3.78 µM (inactive); in the test on RPMI-8226, 2.07 µM (inactive); with SK-MEL-28, 3.85 µM (inactive); in the test with SK-MEL-5 it was 6.24 µM (inactive); in the test with T47D, 17 µM (inactive). Besides, the GI50 in the test on TK-10 is 33.4 µM (inactive); with UO-31, 85.5 µM (inactive).

With `N=C(N)N/N=C/c1c(Cl)nc2sccn12`, the GI50 was 30.5 µM (inactive) in the test on A549; 26.9 µM (inactive) in the test on BT-549; 52.6 µM (inactive) with CAKI-1; 14.9 µM (inactive) in the test on COLO 205; 42.9 µM (inactive) with EKVX; 16.9 µM (inactive) with HCC 2998. Moreover, the GI50 with HCT-15 was more than 10 µM; in the test on HOP-62, 21.5 µM (inactive); with HOP-92, 21.1 µM (inactive); with IGROV-1, 53.5 µM (inactive); in the test with K562, 25.6 µM (inactive); in the test on LOX IMVI it was 18.9 µM (inactive). The GI50 in the test on NCI-H226 was 25.4 µM (inactive); with NCI-H522, 27 µM (inactive); in the test on RPMI-8226, 19.4 µM (inactive); with SK-MEL-28 it was 35.4 µM (inactive); with SK-MEL-5, 15.8 µM (inactive); in the test with T47D it was 26.5 µM (inactive). Moreover, the GI50 with TK-10 is 52.2 µM (inactive); with UO-31, 34.7 µM (inactive).

In the case of `O=C1C([N-]S(=O)(=O)c2ccccc2)=C([n+]2ccc(Cc3ccccc3)cc2)C(=O)c2ccccc21`, the GI50 is 1.92 µM (inactive) with A549; 1.36 µM (inactive) in the test with BT-549; 1.73 µM (inactive) in the test with CAKI-1; 0.0644 µM (active) with COLO 205; 1.76 µM (inactive) in the test with EKVX; 1.2 µM (inactive) in the test on HCC 2998. Also, the GI50 with HCT-15 was 1.69 µM; in the test with HOP-62, 1.75 µM (inactive); with HOP-92, 2.72 µM (inactive); in the test with IGROV-1, 1.79 µM (inactive); in the test on K562 it was 0.359 µM (active); in the test on LOX IMVI, 0.424 µM (active). For the same molecule, the GI50 with NCI-H226 was 1.67 µM (inactive); in the test on NCI-H522, 0.614 µM (active); in the test with RPMI-8226, 1.65 µM (inactive); in the test on SK-MEL-28, 0.859 µM (active); in the test on SK-MEL-5, 0.145 µM (active); in the test on T47D, 3.46 µM (inactive). Besides, the GI50 was 1.66 µM (inactive) in the test with TK-10 and 2.13 µM (inactive) in the test with UO-31.
